# Activity calls are given as the source filed them. No rule for the calls is given here.
# Test system: Clostridioides difficile clinical isolate growth, OD600, 24 h
# Assay: C. difficile growth inhibition, confirmation, 4-point retest (AID 1224921)
row,SMILES,AC50
1,C[C@@H]1CN([C@H](C)CO)C(=O)c2cc(C#Cc3ccccc3F)cnc2O[C@H]1CN(C)C,23.3 µM
2,O=C(C[C@H]1CC[C@H]2[C@@H](COC[C@H](O)CN2C(=O)Nc2ccc(C(F)(F)F)cc2)O1)NC1Cc2ccccc2C1,1.54 µM
3,O=C(C[C@H]1CC[C@H]2[C@@H](COC[C@H](O)CN2C(=O)Nc2ccc(Cl)c(Cl)c2)O1)NCc1ccc(Cl)cc1,1.07 µM
4,CO[C@H](CN(C)C(=O)C1CC1)[C@H](C)CN(C(=O)Nc1ccc(C(F)(F)F)cc1)[C@H](C)CO,2.98 µM
5,C[C@H]1CN([C@@H](C)CO)C(=O)c2cc(C#CCc3ccccc3)cnc2O[C@@H]1CN(C)CC1CCCC1,29.7 µM
6,Cn1cnc(CCNC(=O)C[C@@H]2CC[C@@H]3[C@H](COC[C@H](O)CN3C(=O)Nc3ccc(C(F)(F)F)cc3)O2)c1,19.6 µM
7,Cc1ccc(S(=O)(=O)N2C[C@@H](O)COC[C@H]3O[C@H](CC(=O)NCc4ccc(Cl)c(Cl)c4)CC[C@@H]32)cc1,> 60 µM (inactive)
8,O=C(NCC[C@H]1CC[C@@H](NC(=O)C2CC2)[C@H](CO)O1)Nc1ccc(C(F)(F)F)cc1,9.05 µM
